This note sets out measurements from patent publication US8445509B2, “Fused heterocyclic derivatives and use thereof” (Takeda Pharmaceutical Company Limited, priority 2008, dated 2013).

As a reminder, the IC50 is the concentration at which inhibition is half-maximal.

The target in assay [1] is T1, FLT3 intracellular domain protein (Homo sapiens, UniProt P36888).
T1 construct: 7.5 ng/ml of FLT3 intracellular domain protein (Millipore); purchased Millipore
T1 sequence (P36888 564-993 limits assumed): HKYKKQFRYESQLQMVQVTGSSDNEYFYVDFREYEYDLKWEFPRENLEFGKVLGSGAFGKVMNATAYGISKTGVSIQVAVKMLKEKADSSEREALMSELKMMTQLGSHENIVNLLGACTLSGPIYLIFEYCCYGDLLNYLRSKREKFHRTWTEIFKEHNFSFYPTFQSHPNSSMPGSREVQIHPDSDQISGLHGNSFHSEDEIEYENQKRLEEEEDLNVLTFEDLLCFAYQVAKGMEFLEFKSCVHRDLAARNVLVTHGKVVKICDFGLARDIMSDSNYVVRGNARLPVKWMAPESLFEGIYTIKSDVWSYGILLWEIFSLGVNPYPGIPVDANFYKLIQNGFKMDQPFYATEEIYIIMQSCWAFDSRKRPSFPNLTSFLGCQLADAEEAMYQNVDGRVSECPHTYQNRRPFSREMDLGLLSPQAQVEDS
The assay is described as follows: Fms Like Tyrosine Kinase 3 (FLT3) kinase inhibitory activity (AlphaScreen). Type of assay: biochemical. Put shortly: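 FLT3 intracellular domain (7.5 ng/ml) and biotin-poly-Glu:Tyr (250 ng/mL), each as added, were preincubated 5 min with compound in Tris pH 7.5 with Mg²⁺, Mn²⁺, DTT and Tween-20. ATP was added (5 μM) for 10 min at 25 °C, then EDTA stop with streptavidin donor/anti-phosphotyrosine acceptor beads for 16 h. % inhibition was calculated against the no-compound control and the no-compound/no-ATP blank.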
Background: In Alpha technology, singlet oxygen from a donor bead excites a nearby acceptor bead.

Assay [2] addresses T2, c-Met intracellular domain protein (Homo sapiens, UniProt P08581).
T2 construct: 2.5 ng/ml of c-Met intracellular domain protein (Millipore); purchased Millipore
As to the kind of experiment: Hepatocyte growth factor receptor (c-Met) kinase inhibitory activity (AlphaScreen). The class given is biochemical. To be noted: for inhibition at 1 µM: 1 μM test compound, read-out: inhibitory rate (%) at 1 μM. As for the experimental part:
A test compound dissolved in dimethyl sulfoxide (DMSO) was diluted with a buffer (50 mM Tris-HCl (pH 7.5), 5 mM MgCl2, 5 mM MnCl2, 2 mM dithiothreitol, 0.01% Tween-20). To this compound solution (5 μL) was added a buffer (10 μL) containing 2.5 ng/ml of c-Met intracellular domain protein (Millipore) and 250 ng/mL of biotin labeled polypeptide biotinyl-poly-Glu:Tyr (4:1) (CIS bio International). […] The reaction solution was allowed to stand at 25° C. for 16 hrs, and the wells were counted using a plate reader (Fusion™ (PerkinElmer)). The kinase inhibitory rate (%) of the test compound was calculated by the following formula: Inhibitory rate (%)=(1−(count of test compound−blank)÷(control−blank))×100
The count of the solution reacted without addition of the compound was used as a “control”, and the count of the solution without the compound and ATP was used as a “blank”.

Assay [3] relates to Human gastric cancer cell line MKN-45. The assay is described as follows: Human gastric cancer cell line MKN-45 growth inhibitory test. The class given is cell-based. To be noted: MKN-45, 72 h, culture for 3 days; for inhibition at 1 µM: 1 μM test substance, read-out: inhibitory rate (%) at 1 μM; for IC50: read-out: IC50 value. In short, it runs like this:
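MKN-45 cells plated at 3000/well in RPMI1640 with 0.3% FBS, then exposed to test substance for 3 days at 37 °C. Viability read by CCK-8 absorbance at 450 nm; IC50 from variable-slope sigmoidal fit, with DMSO as 100% growth and 10 µM reference c-Met inhibitor as 0% growth.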

T2 sequence (P08581 956-1390 limits assumed): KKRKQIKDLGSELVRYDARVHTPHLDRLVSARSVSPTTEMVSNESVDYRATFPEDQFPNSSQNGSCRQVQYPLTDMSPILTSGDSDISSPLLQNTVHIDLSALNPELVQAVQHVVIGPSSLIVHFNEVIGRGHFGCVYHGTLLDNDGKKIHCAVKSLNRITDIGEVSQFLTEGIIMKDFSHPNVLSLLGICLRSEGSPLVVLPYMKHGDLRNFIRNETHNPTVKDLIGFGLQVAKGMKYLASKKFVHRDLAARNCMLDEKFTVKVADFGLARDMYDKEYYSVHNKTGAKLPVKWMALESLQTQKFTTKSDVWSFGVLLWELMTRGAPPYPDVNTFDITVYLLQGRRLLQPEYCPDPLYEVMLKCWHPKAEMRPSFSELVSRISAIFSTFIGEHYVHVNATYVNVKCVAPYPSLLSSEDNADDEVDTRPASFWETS

In the case of `Cc1ccc(C(=O)Nc2ccc(Oc3ccc4nc(NC(=O)C5CC5)cn4c3)cn2)c(=O)n1-c1ccc(F)cc1` [Example 60, N-[5-({2-[(cyclopropylcarbonyl)amino]imidazo[1,2-a]pyridin-6-yl}oxy)pyridin-2-yl]-1-(4-fluorophenyl)-6-methyl-2-oxo-1,2-dihydropyridine-3-carboxamide], the concentration for half-maximal inhibition (IC50) in assay [1], in assay [2] and in assay [3] was no more than 1000 nM in each case. Moreover, the inhibition at 1 µM in assay [2] and in assay [3] was no less than 80% in each case.
Consider `Cc1ccc(C(=O)Nc2ccc(Oc3ccc4nc(NC(=O)C5CC5)cn4c3)cn2)[n+]([O-])c1-c1ccc(F)cc1` [Example 61, N-[5-({2-[(cyclopropylcarbonyl)amino]imidazo[1,2-a]pyridin-6-yl}oxy)pyridin-2-yl]-6-(4-fluorophenyl)-5-methylpyridine-2-carboxamide 1-oxide], for which the concentration for half-maximal inhibition (IC50) in assay [1], in assay [2] and in assay [3] was no more than 1000 nM in each case. In addition, the inhibition at 1 µM in assay [2] and in assay [3] was no less than 80% in each case.
Regarding `Cc1cc(C(=O)Nc2ccc(Oc3ccc4nc(NC(=O)C5CC5)cn4c3)c(F)c2)c(=O)n(-c2ccc(F)cc2)c1` [Example 66, N-[4-({2-[(cyclopropylcarbonyl)amino]imidazo[1,2-a]pyridin-6-yl}oxy)-3-fluorophenyl]-1-(4-fluorophenyl)-5-methyl-2-oxo-1,2-dihydropyridine-3-carboxamide], the concentration for half-maximal inhibition (IC50) in assay [1], in assay [2] and in assay [3] was no more than 1000 nM each time. The inhibition at 1 µM in assay [2] and in assay [3] was no less than 80% in each case.
In the case of `Cc1cc(C(=O)Nc2ccc(Oc3ccc4nc(NC(=O)C5CC5)cn4c3)c(F)c2)c(=O)n(-c2ccc(F)cc2)c1C` [Example 70, N-[4-({2-[(cyclopropylcarbonyl)amino]imidazo[1,2-a]pyridin-6-yl}oxy)-3-fluorophenyl]-1-(4-fluorophenyl)-5,6-dimethyl-2-oxo-1,2-dihydropyridine-3-carboxamide], the IC50 in assay [1], in assay [2] and in assay [3] was no more than 1000 nM in each case. The inhibition at 1 µM in assay [2] and in assay [3] was no less than 80% throughout.
With `Cc1ccc(C(=O)Nc2ccc(Oc3ccc4nc(NC(=O)C5CC5)cn4c3)cc2)[n+]([O-])c1-c1ccc(F)cc1` [Example 72, N-[4-({2-[(cyclopropylcarbonyl)amino]imidazo[1,2-a]pyridin-6-yl}oxy)phenyl]-6-(4-fluorophenyl)-5-methylpyridine-2-carboxamide 1-oxide], the 50% inhibitory concentration (IC50) in assay [1], in assay [2] and in assay [3] was no more than 1000 nM each time. In addition, the inhibition at 1 µM in assay [2] and in assay [3] was no less than 80% in each case.
As for `Cc1ccc(C(=O)Nc2ccc(Oc3ccc4nc(NC(=O)C5CC5)cn4c3)c(F)c2)c(=O)n1-c1cccc(F)c1` [Example 75, N-[4-({2-[(cyclopropylcarbonyl)amino]imidazo[1,2-a]pyridin-6-yl}oxy)-3-fluorophenyl]-1-(3-fluorophenyl)-6-methyl-2-oxo-1,2-dihydropyridine-3-carboxamide], the concentration for half-maximal inhibition (IC50) in assay [1], in assay [2] and in assay [3] was no more than 1000 nM each time. Besides, the inhibition at 1 µM in assay [2] and in assay [3] was no less than 80% throughout.
As for `Cc1ccc(C(=O)Nc2ccc(Oc3ccn4nc(NC(=O)C5CC5)nc4c3)c(F)c2)c(=O)n1-c1ccc(F)cc1` [Example 76, N-[4-({2-[(cyclopropylcarbonyl)amino][1,2,4]triazolo[1,5-a]pyridine-7-yl}oxy)-3-fluorophenyl]-1-(4-fluorophenyl)-6-methyl-2-oxo-1,2-dihydropyridine-3-carboxamide], the IC50 in assay [1], in assay [2] and in assay [3] was no more than 1000 nM in each case. In addition, the inhibition at 1 µM in assay [2] and in assay [3] was no less than 80% in each case.
With `Cc1c(C(=O)Nc2ccc(Oc3ccc4nc(NC(=O)C5CC5)cn4c3)c(F)c2)c(=O)n(-c2ccc(F)cc2)n1C` [Example 77, N-[4-({2-[(cyclopropylcarbonyl)amino]imidazo[1,2-a]pyridin-6-yl}oxy)-3-fluorophenyl]-2-(4-fluorophenyl)-1,5-dimethyl-3-oxo-2,3-dihydro-1H-pyrazole-4-carboxamide], the IC50 in assay [1], in assay [2] and in assay [3] was no more than 1000 nM in each case. For the same molecule, the inhibition at 1 µM in assay [2] and in assay [3] was no less than 80% each time.
In the case of `CC1CCN(C(=O)Nc2ccc(Oc3ccc4nc(NC(=O)C5CC5)cn4c3)c(F)c2)C(=O)N1c1ccc(F)cc1` (centres unmarked) [Example 80, N-[4-({2-[(cyclopropylcarbonyl)amino]imidazo[1,2-a]pyridin-6-yl}oxy)-3-fluorophenyl]-3-(4-fluorophenyl)-4-methyl-2-oxotetrahydropyrimidine-1(2H)-carboxamide], the 50% inhibitory concentration (IC50) in assay [1], in assay [2] and in assay [3] was no more than 1000 nM in each case. Moreover, the inhibition at 1 µM in assay [2] and in assay [3] was no less than 80% throughout.
Regarding `CC1=C(c2ccc(F)cc2)C(=O)N(C(=O)Nc2ccc(Oc3ccc4nc(NC(=O)C5CC5)cn4c3)c(F)c2)CC1` [Example 81, N-[4-({2-[(cyclopropylcarbonyl)amino]imidazo[1,2-a]pyridin-6-yl}oxy)-3-fluorophenyl]-5-(4-fluorophenyl)-4-methyl-6-oxo-3,6-dihydropyridine-1(2H)-carboxamide], the IC50 in assay [1], in assay [2] and in assay [3] was no more than 1000 nM each time. The inhibition at 1 µM in assay [2] and in assay [3] was no less than 80% in each case.
For `Cc1cc(C)n(-c2ccc(F)cc2)c(=O)c1C(=O)Nc1ccc(Oc2ccc3nc(NC(=O)C4CC4)cn3c2)c(F)c1` [Example 82, N-[4-({2-[(cyclopropylcarbonyl)amino]imidazo[1,2-a]pyridin-6-yl}oxy)-3-fluorophenyl]-1-(4-fluorophenyl)-4,6-dimethyl-2-oxo-1,2-dihydropyridine-3-carboxamide], the concentration for half-maximal inhibition (IC50) in assay [1], in assay [2] and in assay [3] was no more than 1000 nM each time. For the same molecule, the inhibition at 1 µM in assay [2] and in assay [3] was no less than 80% each time.
For `Cc1ccc(C(=O)Nc2ccc(Oc3ccc4nc(NC(=O)C5CC5)cn4c3)cc2F)[n+]([O-])c1-c1ccc(F)cc1` [Example 84, N-[4-({2-[(cyclopropylcarbonyl)amino]imidazo[1,2-a]pyridin-6-yl}oxy)-2-fluorophenyl]-6-(4-fluorophenyl)-5-methylpyridine-2-carboxamide 1-oxide], the 50% inhibitory concentration (IC50) in assay [1], in assay [2] and in assay [3] was no more than 1000 nM in each case. The inhibition at 1 µM in assay [2] and in assay [3] was no less than 80% throughout.
On to `Cc1ccc(C(=O)Nc2ccc(Oc3ccc4nc(NC(=O)C5CC5)cn4c3)c(F)c2)[n+]([O-])c1-c1cccc(F)c1` [Example 93, N-[4-({2-[(cyclopropylcarbonyl)amino]imidazo[1,2-a]pyridin-6-yl}oxy)-3-fluorophenyl]-6-(3-fluorophenyl)-5-methylpyridine-2-carboxamide 1-oxide], for which the IC50 in assay [1], in assay [2] and in assay [3] was no more than 1000 nM each time. Besides, the inhibition at 1 µM in assay [2] and in assay [3] was no less than 80% in each case.
